# Laboratory results published in ChEMBL document CHEMBL1139417, “Synthesis and biological evaluation of novel 3'-N-tert-butylsulfonyl analogues of docetaxel” (Bioorg Med Chem Lett, 2008).
# Tests used:
# Type in all cases: functional, cell-based
# [1] = Cytotoxicity against human Eca109 cells; settings: ECa-109
# HeLa = assay: Cytotoxicity against human HeLa cells
# HCT-8 = assay: Cytotoxicity against human HCT8 cells
# SMMC-7721 = assay: Cytotoxicity against human SMMC7721 cells
Compound,IC50 [1] [nM],IC50 (HeLa) [nM],IC50 (HCT-8) [nM],IC50 (SMMC-7721) [nM]
CC(=O)O[C@@]12CO[C@@H]1C[C@H](O)[C@@]1(C)C(=O)[C@H](O)C3=C(C)[C@@H](OC(=O)[C@H](O)[C@@H](NS(=O)(=O)C(C)(C)C)c4ccccc4)C[C@@](O)([C@@H](OC(=O)c4ccccc4)[C@H]21)C3(C)C,7140,9540,9120,> 10000
CC(=O)O[C@@]12CO[C@@H]1C[C@H](O)[C@@]1(C)C(=O)[C@H](O)C3=C(C)[C@@H](OC(=O)[C@H](O)[C@@H](NS(=O)(=O)C(C)(C)C)c4cccc[n+]4[O-])C[C@@](O)([C@@H](OC(=O)c4ccccc4)[C@H]21)C3(C)C,1950,2540,2850,2540
CC(=O)O[C@@]12CO[C@@H]1C[C@H](O)[C@@]1(C)C(=O)[C@H](O)C3=C(C)[C@@H](OC(=O)[C@H](O)[C@@H](NS(=O)(=O)C(C)(C)C)c4ccc[n+]([O-])c4)C[C@@](O)([C@@H](OC(=O)c4ccccc4)[C@H]21)C3(C)C,2520,2670,3030,2450
CC(=O)O[C@@]12CO[C@@H]1C[C@H](O)[C@@]1(C)C(=O)[C@H](O)C3=C(C)[C@@H](OC(=O)[C@H](O)[C@@H](NC(=O)OC(C)(C)C)c4ccccc4)C[C@@](O)([C@@H](OC(=O)c4ccccc4)[C@H]21)C3(C)C [DOCETAXEL],2600,3030,3070,2730
CC(=O)O[C@H]1C(=O)[C@@]2(C)[C@H]([C@H](OC(=O)c3ccccc3)[C@]3(O)C[C@H](OC(=O)[C@H](O)[C@@H](NC(=O)c4ccccc4)c4ccccc4)C(C)=C1C3(C)C)[C@]1(OC(C)=O)CO[C@@H]1C[C@@H]2O [PACLITAXEL],2730,,3290,2860
